Patent US20250296960A1, “PEPTIDE COMPOSITIONS AND METHODS OF USE THEREOF” (priority 2022, published 2025)
Square brackets hold non-standard residues; d marks the D form. Peptide text beside a SMILES is read from it. * marks the point of attachment. X1 = O=C(O)CCCCCCCCCCCCCCCCC(=O)N[C@@H](CCC(=O)NCCOCCOCC(=O)NCCOCCOCC(=O)NCCN1C(=O)CC(*)C1=O)C(=O)O; Aib = CC(C)(N)C(=O)O

Columns and labels:
[1] = Body weight loss in normal C57BL/6 mice, subcutaneous dosing; assay type: in vivo; settings: normal mice, after 48 or 72 hours
Procedure: To confirm the therapeutic effect of the peptide in vivo, polypeptides were administered to mice to measure changes in body weight. […] The peptides were delivered at 0.02% polysorbate 80 (PS80) in PBS and dosing volume was 10 mL/kg. Body weight was monitored 6 h, QD.
To confirm the therapeutic effect of the peptide in obesity, diabetes, or NASH, polypeptides were administered to mice to measure changes in food intake, blood glucose and body weight. […] In addition, a NASH animal model was prepared by feeding a high fat, high fructose, high cholesterol diet to normal C57BL/6 mice (approximately 6 weeks old) for approximately 21 weeks, and increasing the body weights of the mice to approximately 50 g on average. Thereafter, polypeptides were administered by subcutaneous injection at dose of 20 nmol/kg once every other day for 2 weeks. Body weight and food intake were measured once every other day given points of time. After 2 weeks of treatment period, mice were sacrificed, then liver weight, hepatic triglyceride, and NASH related biomarkers were measured.
DD01 administered at 40 nmol/kg, s.c. Q2D as positive control was delivered at 0.02% PS80 in PBS and dosing volume was 10 mL/kg. Body weight was monitored QD for 4 days.
The peptides were delivered at 0.02% PS80 in PBS and dosing volume was 10 mL/kg. Food intake, blood glucose, and body weight changes were monitored QD.

[2] = biological target: T1, human GIPR (Homo sapiens, UniProt P48546); experiment: cAMP assay (HitHunter cAMP) in GIPR-expressing CHO-K1 cells (GIPR+ cells); assay type: cell-based
T1 construct: host or cells: CHO-K1
T1 sequence (P48546 22-466): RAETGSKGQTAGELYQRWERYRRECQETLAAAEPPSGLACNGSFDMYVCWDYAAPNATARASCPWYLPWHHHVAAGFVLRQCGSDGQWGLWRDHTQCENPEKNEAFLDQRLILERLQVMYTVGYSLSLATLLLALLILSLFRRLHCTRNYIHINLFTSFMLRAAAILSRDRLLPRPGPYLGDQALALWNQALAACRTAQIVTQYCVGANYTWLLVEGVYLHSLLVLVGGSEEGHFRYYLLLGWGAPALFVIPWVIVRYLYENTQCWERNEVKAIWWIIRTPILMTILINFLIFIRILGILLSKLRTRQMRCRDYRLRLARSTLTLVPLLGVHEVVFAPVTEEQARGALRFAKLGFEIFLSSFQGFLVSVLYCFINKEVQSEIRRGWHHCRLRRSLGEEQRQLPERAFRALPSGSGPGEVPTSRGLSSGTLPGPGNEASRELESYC
Procedure: (§1) The cells were seeded in a 96-well plate at 7×10^3 cells/well using cell plate reagent and incubated the cells overnight at 37° C. and 5% CO2. To perform the cAMP detection assay, cell plating reagent were replaced with the cAMP Assay buffer. Each of the wells was then treated with the diluted peptide and incubated for 30 minutes under conditions of a temperature of 37° C. in a CO2 incubator.
(§2) After the incubation, cAMP Antibody reagent and Working cAMP detection solution to all wells. Incubate the plate for 1 hour at Room temperature in the dark. Then, cAMP Solution A was added and incubated for 3 hours at room temperature in the dark. Subsequently, the luminescence was measured using the microplate reader device.

[3] = biological target: T2, human GCGR (Homo sapiens, UniProt P47871); experiment: cAMP assay (HitHunter cAMP) in GCGR-expressing CHO-K1 cells (GCGR+ cells); assay type: cell-based
T2 construct: host or cells: CHO-K1
Procedure: as §1, §2

[4] = biological target: T3, human GLP-1R (Homo sapiens, UniProt P43220); experiment: cAMP assay (HitHunter cAMP) in GLP-1R-expressing CHO-K1 cells (GLP-1R+ cells); assay type: cell-based
T3 construct: host or cells: CHO-K1
Procedure: as §1, §2

[5] = Table 13, EC50 of STD peptide over EC50 of peptide
[6] = Table 14, normalised to activity at GLP-1R
[7] = Table 19, normalised to activity at GLP-1R
[8] = Table 24, ratio of EC50 of native ligand over peptide

T3 sequence (P43220 24-463): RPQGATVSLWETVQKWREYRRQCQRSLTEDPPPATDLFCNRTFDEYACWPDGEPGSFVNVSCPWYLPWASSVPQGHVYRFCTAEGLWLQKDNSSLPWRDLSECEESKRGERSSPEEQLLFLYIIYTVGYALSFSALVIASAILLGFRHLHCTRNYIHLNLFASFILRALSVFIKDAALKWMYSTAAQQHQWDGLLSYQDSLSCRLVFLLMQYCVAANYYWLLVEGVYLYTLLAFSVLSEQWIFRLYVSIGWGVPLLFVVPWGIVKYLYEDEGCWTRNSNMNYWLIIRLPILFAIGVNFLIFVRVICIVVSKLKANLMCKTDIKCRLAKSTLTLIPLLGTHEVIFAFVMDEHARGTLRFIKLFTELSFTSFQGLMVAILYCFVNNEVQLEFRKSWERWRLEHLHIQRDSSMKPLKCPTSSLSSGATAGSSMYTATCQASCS
T2 sequence (P47871 26-477): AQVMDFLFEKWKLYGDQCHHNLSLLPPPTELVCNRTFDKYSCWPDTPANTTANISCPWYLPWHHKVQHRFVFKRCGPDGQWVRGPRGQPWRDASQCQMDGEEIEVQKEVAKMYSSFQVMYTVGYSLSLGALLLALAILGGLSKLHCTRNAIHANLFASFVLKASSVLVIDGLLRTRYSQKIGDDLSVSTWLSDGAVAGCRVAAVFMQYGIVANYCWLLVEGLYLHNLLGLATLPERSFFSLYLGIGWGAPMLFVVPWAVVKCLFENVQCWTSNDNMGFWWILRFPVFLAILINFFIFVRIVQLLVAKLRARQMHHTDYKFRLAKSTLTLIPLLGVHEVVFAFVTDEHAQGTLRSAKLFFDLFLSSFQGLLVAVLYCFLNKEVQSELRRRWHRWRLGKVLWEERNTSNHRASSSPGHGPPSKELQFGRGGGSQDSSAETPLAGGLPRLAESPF

For CC[C@H](C)[C@H](NC(=O)[C@H](CC(C)C)NC(=O)[C@H](Cc1c[nH]c2ccccc12)NC(=O)[C@H](CCC(N)=O)NC(=O)[C@@H](NC(=O)[C@H](Cc1ccccc1)NC(=O)[C@H](CC(=O)O)NC(=O)[C@H](CCCNC(=N)N)NC(=O)[C@H](C)NC(=O)[C@H](CCSC)NC(=O)[C@H](CCSC)NC(=O)[C@H](Cc1ccc(O)cc1)NC(=O)[C@H](CC(=O)O)NC(=O)[C@H](CC(C)C)NC(=O)[C@H](Cc1ccc(O)cc1)NC(=O)[C@H](CCCCNC(=O)COCCOCCNC(=O)COCCOCCNC(=O)CC[C@H](NC(=O)CCCCCCCCCCCCCCCCC(=O)O)C(=O)O)NC(=O)[C@H](CO)NC(=O)[C@H](Cc1ccc(O)cc1)NC(=O)[C@H](CC(=O)O)NC(=O)[C@H](CO)NC(=O)[C@@H](NC(=O)[C@H](Cc1ccccc1)NC(=O)[C@@H](NC(=O)CNC(=O)[C@H](CCC(N)=O)NC(=O)C(C)(C)NC(=O)[C@@H](N)Cc1c[nH]cn1)[C@@H](C)O)[C@@H](C)O)C(C)C)C(=O)N[C@@H](CCC(=O)O)C(=O)NCC(=O)NCC(=O)N1CCC[C@H]1C(=O)N[C@@H](CO)C(=O)N[C@@H](CO)C(=O)NCC(=O)N[C@@H](C)C(=O)N1CCC[C@H]1C(=O)N1CCC[C@H]1C(=O)N1CCC[C@H]1C(=O)N[C@@H](CO)C(=O)N[C@@H](CSC1CC(=O)N(CCCCCC(=O)NNC(=O)CCCC[C@@H]2SC[C@@H]3NC(=O)N[C@@H]32)C1=O)C(N)=O (stereo partly drawn) [5C, HAibQGT FTSDY SK*YLD YMMAR DFVQW LIEGG PSSGA PPPSB#], the “Weight loss (%)” value ([1]; 10 nmol/kg QD) was 9.6 ± 1.0%, the “Weight loss (%)” value ([1]; 20 nmol/kg QD) was 14.1 ± 1.9% and the “Activity relative to STD peptide (%), GIP” value [2, 5] was 8%. The “Activity relative to GLP-1 (%), GIP” value [2, 6] was 4%, the “Activity relative to STD peptide (%), Glucagon” value [3, 5] was 23% and the “Activity relative to GLP-1 (%), Glucagon” value [3, 6] was 12%. The “Activity relative to STD peptide (%), GLP-1” value [4, 5] was 202% and the “Activity relative to GLP-1 (%), GLP-1” value [4, 6] was 100%.

For CC[C@H](C)[C@H](NC(=O)[C@H](CC(C)C)NC(=O)[C@H](Cc1c[nH]c2ccccc12)NC(=O)[C@H](CCC(N)=O)NC(=O)[C@@H](NC(=O)[C@H](Cc1ccccc1)NC(=O)[C@H](CC(=O)O)NC(=O)[C@H](CCCNC(=N)N)NC(=O)[C@H](CCC(N)=O)NC(=O)[C@H](CCSC)NC(=O)[C@H](CCSC)NC(=O)[C@H](Cc1ccc(O)cc1)NC(=O)[C@H](CC(=O)O)NC(=O)[C@H](CC(C)C)NC(=O)[C@H](Cc1ccc(O)cc1)NC(=O)[C@H](CCCCN)NC(=O)[C@H](CO)NC(=O)[C@H](Cc1ccc(O)cc1)NC(=O)[C@H](CC(=O)O)NC(=O)[C@H](CO)NC(=O)[C@@H](NC(=O)[C@H](Cc1ccccc1)NC(=O)[C@@H](NC(=O)CNC(=O)[C@H](CCC(N)=O)NC(=O)C(C)(C)NC(=O)[C@@H](N)Cc1ccc(O)cc1)[C@@H](C)O)[C@@H](C)O)C(C)C)C(=O)N[C@@H](CCC(=O)O)C(=O)NCC(=O)NCC(=O)N1CCC[C@H]1C(=O)N[C@@H](CO)C(=O)N[C@@H](CO)C(=O)NCC(=O)N[C@@H](C)C(=O)N1CCC[C@H]1C(=O)N1CCC[C@H]1C(=O)N1CCC[C@H]1C(=O)N[C@@H](CO)C(=O)N[C@@H](CSC1CC(=O)N(CCNC(=O)COCCOCCNC(=O)COCCOCCNC(=O)CC[C@H](NC(=O)CCCCCCCCCCCCCCCCC(=O)O)C(=O)O)C1=O)C(N)=O (stereo partly drawn) [5-2A] (H-Y[Aib]QGTFTSDYSKYLDYMMQRDFVQWLIEGGPSSGAPPPSC(X1)-NH2; N-terminus assumed), the “Weight loss (%)” value ([1]; 20 nmol/kg QD) was 10.4 ± 1.2%, the “Activity relative to STD peptide (%), GIPR” value ([2]; Table 18) was 3% and the “Activity relative to GLP-1 (%), GIPR” value [2, 7] was 2%. For the same molecule, the “Relative % to native ligand, GIPR” value [2, 8] was 3%, the “Ratio vs. GLP-1R, GIPR” value ([2]; Table 25) was 2 and the “Relative % to non-lipidated peptide, GIPR” value ([2]; Table 26) was 0.4%. The “Activity relative to STD peptide (%), GCGR” value ([3]; Table 18) was 1%, the “Activity relative to GLP-1 (%), GCGR” value [3, 7] was 0% and the “Relative % to native ligand, GCGR” value [3, 8] was 1%. For the same molecule, the “Ratio vs. GLP-1R, GCGR” value ([3]; Table 25) was 0, the “Relative % to non-lipidated peptide, GCGR” value ([3]; Table 26) was 1% and the “Activity relative to STD peptide (%), GLP-1R” value ([4]; Table 18) was 145%. For the same molecule, the “Activity relative to GLP-1 (%), GLP-1R” value [4, 7] was 100%, the “Relative % to native ligand, GLP-1R” value [4, 8] was 145% and the “Ratio vs. GLP-1R, GLP-1R” value ([4]; Table 25) was 100. The “Relative % to non-lipidated peptide, GLP-1R” value ([4]; Table 26) was 29%.
